According to US9695155B2, “Herbicidal substituted pyrimidinyloxy benzene compounds” (E. I. DU PONT DE NEMOURS AND COMPANY, priority 2013, dated 2017):

Legend:
Assay in all cases: Test E postemergence
corn = format: in vivo, Zea mays
Source text: (§1) Seeds of plant species selected from corn (Zea mays), soybean (Glycine max), velvetleaf (Abutilon theophrasti), lambsquarters (Chenopodium album), wild poinsettia (Euphorbia heterophylla), palmer pigweed (Amaranthus palmeri), waterhemp (common waterhemp, Amaranthus rudis), surinam grass (Brachiaria decumbens), large (Lg) crabgrass (Digitaria sanguinalis), Brazilian crabgrass (Digitaria horizontalis), fall panicum (Panicum dichotomiflorum), giant foxtail (Setaria faberii), green foxtail (Setaria viridis), goosegrass (Eleusine indica), johnsongrass (Sorghum halepense), ragweed (common ragweed, Ambrosia elatior), barnyardgrass (Echinochloa crus-galli), sandbur (southern sandbur, Cenchrus echinatus), arrowleaf sida (Sida rhombifolia), Italian ryegrass (Lolium multiflorum), dayflower (Virginia (VA) dayflower, Commelina virginica), field bindweed (Convolvulus arvensis), morningglory (Ipomoea coccinea), nightshade (eastern black nightshade, Solanum ptycanthum), kochia (Kochia scoparia), yellow nutsedge (Cyperus esculentus), cocklebur (common cocklebur, Xanthium strumarium), smartweed (ladysthumb smartweed, and hairy beggarticks (Bidens pilosa), were planted into a silt loam soil and treated preemergence with test chemicals formulated in a non-phytotoxic solvent mixture which included a surfactant.
(§2) At the same time, plants from these crop and weed species and also horseweed (Canada horseweed, Conyza canadensis), waterhemp_RES1, (ALS & Triazine resistant common waterhemp, Amaranthus rudis), and waterhemp_RES2, (ALS & HPPD resistant common waterhemp, Amaranthus rudis) were planted in pots containing Redi-Earth® planting medium (Scotts Company, 14111 Scottslawn Road, Marysville, Ohio 43041) comprising spaghnum peat moss, vermiculite, wetting agent and starter nutrients were treated with postemergence applications of test chemicals formulated in the same manner. Plants ranged in height from 2 to 18 cm for postemergence treatments (1- to 4-leaf stage). Treated plants and controls were maintained in a greenhouse for 14 to 21 days, after which time all species were compared to controls and visually evaluated. Plant response ratings, summarized in Table E, are based on a scale of 0 to 100 where 0 is no effect and 100 is complete control. A dash (-) response means no test result.

palmer pigweed = format: in vivo, Amaranthus palmeri; settings: post-emergence, read-out: Plant response rating, Pigweed, Palmer
Source text: as §1, §2

arrowleaf sida = format: in vivo, Sida rhombifolia
Source text: as §1, §2

[1] = Postemergence, 31 g ai/ha, scale 0 to 100
[2] = Postemergence, 62 g ai/ha, scale 0 to 100
[3] = Postemergence, 125 g ai/ha, scale 0 to 100
[4] = Postemergence, 250 g ai/ha, scale 0 to 100
[5] = postemergence, 16 g ai/ha, scale 0 to 100, 0 no effect, 100 complete control

## Fc1cnc(Oc2ccccc2-n2cc(Br)cn2)nc1 [Compound 10, 2-[2-(4-bromo-1H-pyrazol-1-yl)phenoxy]-5-fluoropyrimidine]
corn; Zea mays, post-emergence, Postemergence, 31 g ai/ha, scale 0 to 100
  corn plant response (injury) rating, 0-100 at 31 g/ha: 0%
corn; Zea mays, post-emergence, Postemergence, 62 g ai/ha, scale 0 to 100
  corn plant response (injury) rating, 0-100 at 62 g/ha: 0%
corn; Zea mays, post-emergence, Postemergence, 125 g ai/ha, scale 0 to 100
  corn plant response (injury) rating, 0-100 at 125 g/ha: 0%
corn; Zea mays, post-emergence, Postemergence, 250 g ai/ha, scale 0 to 100
  corn plant response (injury) rating, 0-100 at 250 g/ha: 0%
corn; Zea mays, post-emergence, postemergence, 16 g ai/ha, scale 0 to 100, 0 no effect, 100 complete control
  corn plant response (injury) rating, 0-100 at 16 g/ha: 0%
Palmer pigweed; [1]
  pest or weed control at 31 g/ha: 70%
Palmer pigweed; [2]
  pest or weed control at 62 g/ha: 75%
Palmer pigweed; [3]
  pest or weed control at 125 g/ha: 85%
Palmer pigweed; [4]
  pest or weed control at 250 g/ha: 95%
Palmer pigweed; [5]
  pest or weed control at 16 g/ha: 60%
Arrowleaf sida; Sida rhombifolia, post-emergence, Postemergence, 31 g ai/ha, scale 0 to 100, read-out: Plant response rating, Arrowleaf Sida
  pest or weed control at 31 g/ha: 50%
Arrowleaf sida; Sida rhombifolia, post-emergence, Postemergence, 62 g ai/ha, scale 0 to 100, read-out: Plant response rating, Arrowleaf Sida
  pest or weed control at 62 g/ha: 70%
Arrowleaf sida; Sida rhombifolia, post-emergence, Postemergence, 125 g ai/ha, scale 0 to 100, read-out: Plant response rating, Arrowleaf Sida
  pest or weed control at 125 g/ha: 80%
Arrowleaf sida; Sida rhombifolia, post-emergence, Postemergence, 250 g ai/ha, scale 0 to 100, read-out: Plant response rating, Arrowleaf Sida
  pest or weed control at 250 g/ha: 85%
Arrowleaf sida; Sida rhombifolia, post-emergence, postemergence, 16 g ai/ha, scale 0 to 100, 0 no effect, 100 complete control, read-out: Plant response rating, Arrowleaf Sida
  pest or weed control at 16 g/ha: 40%

## FC(F)(F)c1cnn(-c2ccccc2Oc2ncc(Cl)cn2)c1 [Compound 16]
corn; [1]
  Plant response rating, Corn: 0
corn; [2]
  Plant response rating, Corn: 0
corn; [3]
  Plant response rating, Corn: 10
corn; [4]
  Plant response rating, Corn: 15
corn; [5]
  Plant response rating, Corn: 0
Arrowleaf sida; [1]
  Plant response rating, Arrowleaf Sida: 70
Arrowleaf sida; [2]
  Plant response rating, Arrowleaf Sida: 75
Arrowleaf sida; [3]
  Plant response rating, Arrowleaf Sida: 80
Arrowleaf sida; [4]
  Plant response rating, Arrowleaf Sida: 90
Arrowleaf sida; [5]
  Plant response rating, Arrowleaf Sida: 50
